Assay results taken from US12516058B2, “Small-molecule compounds for controlling endosomal toll-like receptors and therapeutic agent for autoimmune diseases using same” (priority 2020, dated 2026).
“Also recorded” adds a separate entry of the source.

Biological target: T1, TLR9 (Mus musculus, UniProt Q9EQU3)
T1 construct: endogenous in cells; host or cells: RAW 264.7
T1 sequence (Q9EQU3 26-1032): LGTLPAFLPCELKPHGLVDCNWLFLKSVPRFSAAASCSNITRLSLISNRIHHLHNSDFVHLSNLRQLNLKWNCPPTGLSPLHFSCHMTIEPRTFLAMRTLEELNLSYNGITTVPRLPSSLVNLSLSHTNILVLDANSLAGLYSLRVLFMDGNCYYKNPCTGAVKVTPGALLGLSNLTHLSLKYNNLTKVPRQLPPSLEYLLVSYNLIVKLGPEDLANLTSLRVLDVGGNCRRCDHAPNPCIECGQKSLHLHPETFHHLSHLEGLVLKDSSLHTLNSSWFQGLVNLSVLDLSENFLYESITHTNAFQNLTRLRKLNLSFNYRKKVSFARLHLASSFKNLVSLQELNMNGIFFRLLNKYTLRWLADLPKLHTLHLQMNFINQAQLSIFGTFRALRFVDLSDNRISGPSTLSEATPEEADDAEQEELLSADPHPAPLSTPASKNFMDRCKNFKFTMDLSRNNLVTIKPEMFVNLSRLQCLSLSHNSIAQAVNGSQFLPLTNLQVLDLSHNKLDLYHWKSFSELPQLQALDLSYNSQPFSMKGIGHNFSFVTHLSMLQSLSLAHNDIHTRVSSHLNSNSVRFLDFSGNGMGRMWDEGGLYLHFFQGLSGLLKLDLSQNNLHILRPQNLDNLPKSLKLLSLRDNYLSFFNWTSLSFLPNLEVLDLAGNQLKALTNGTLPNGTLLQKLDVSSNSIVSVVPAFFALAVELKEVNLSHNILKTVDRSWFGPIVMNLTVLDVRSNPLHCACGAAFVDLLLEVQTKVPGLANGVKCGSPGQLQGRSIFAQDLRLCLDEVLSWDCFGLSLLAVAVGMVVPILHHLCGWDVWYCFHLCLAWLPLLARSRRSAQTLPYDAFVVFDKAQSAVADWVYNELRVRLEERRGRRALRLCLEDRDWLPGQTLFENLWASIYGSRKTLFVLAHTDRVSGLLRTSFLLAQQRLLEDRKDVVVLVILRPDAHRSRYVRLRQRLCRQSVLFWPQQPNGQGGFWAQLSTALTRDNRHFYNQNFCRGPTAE
Assay: TNF-α secretion ELISA after TLR9 agonist ODN2395 in RAW 264.7 cells
Type: cell-based
Conditions: for inhibitory activity against TLR9 activation (TNF-α secretion): SK01 and structural derivatives, inhibitor 1 h, then ODN2395 4 h; for inhibitory activity against TLR9 (level of TNF-α secretion): SK21 to SK82 at 0.5 μM or 2 μM, ODN2395 0.5 μM

SMILES | inhibitory activity against TLR9 activation (TNF-α secretion) | inhibitory activity against TLR9 (level of TNF-α secretion)
Cc1c(C)n(CCCN(C)C)c2nc3c(c(N)c12)CCCCC3 [SK16, 1-(3-(dimethylamino)propyl)-2,3-dimethyl-1,5,6,7,8,9-hexahydrocyclohepta[b]pyrrolo[3,2-e]pyridin-4-amine] | potent inhibitor; also recorded: best inhibitory activity among the structural analogues of SK01; also recorded: specifically inhibit | –
COc1ccc2c(c1)c1c(N)c3c(nc1n2CCCN(C)C)CCCC3 [SK50, 6-(3-(dimethylamino)propyl)-9-methoxy-2,3,4,6-tetrahydro-1H-indolo[2,3-b]quinolin-11-amine] | – | significant inhibitory activity; also recorded: significantly reduced
Cc1c(C)n(CCN(C)C)c2nc3c(c(N)c12)CCCCC3 [SK01, 1-(2-(dimethylamino)ethyl)-2,3-dimethyl-1,5,6,7,8,9-hexahydrocyclohepta[b]pyrrolo[3,2-e]pyridin-4-amine] | inhibitory ability for TLR7/TLR9 activation was verified; also recorded: specifically inhibit | –
COC(=O)c1ccc2c(c1)c1c(N)c3c(nc1n2CCCN(C)C)CCCC3 [SK64, Methyl 11-amino-6-(3-(dimethylamino)propyl)-2,3,4,6-tetrahydro-1H-indolo[2,3-b]quinolin-9-carboxylate] | – | significant inhibitory activity; also recorded: significantly reduced
Cc1ccc2c(c1)c1c(N)c3c(nc1n2CCCN(C)C)CCCC3 [SK58, 6-(3-(dimethylamino)propyl)-9-methyl-2,3,4,6-tetrahydro-1H-indolo[2,3-b]quinolin-11-amine] | – | significant inhibitory activity; also recorded: significantly reduced
Cc1cc2c(N)c3c(nc2n1CCCN(C)C)CCCCCC3 [SK41, 1-(3-(dimethylamino)propyl)-2-methyl-5,6,7,8,9,10-hexahydro-1H-cycloocta[b]pyrrolo[3,2-e]pyridin-4-amine] | – | significant inhibitory activity; also recorded: significantly reduced
